Test results from US20070264241A1, “Compounds for Enhanced Cancer Therapy” (priority 2004, published 2007).
“Also recorded” adds a separate entry of the source.

Tested on: Cx43 in human neural stem cells (HNSC.100)
Assay: Western blot analysis for Cx43 in neural stem cells
Assay type: cell-based
Conditions: 0.5 mM 4-PB, up to 4 days
Procedure: Human neural stem cells (HNSC.100 cells, Villa et al Exp Neurol, 2000, 161(1):67-84) were obtained from Alberto Martinez Serrano, Department of Molecular Biology, Center of Molecular Biology Severo Ochoa, Autonomous University of Madrid-CSIC, Campus Cantoblanco, Madrid, 28049, Spain. Neural stem cells were grown to around 50% confluence and then 0.5 mM 4-PB treatment was started and continued for 4 days. Medium was replaced every 2nd day with fresh drug. Whole-cell lysates from three 100 mm petri dishes were solubilized in 100 μl of lysis buffer containing 250 mM Tris-HCl (pH 8.5), 2% SDS, 10% glycerol, 0.05 mM PMSF and protease inhibitor cocktail (Roche). Protein concentrations were quantified using the micro BSA protein assay kit (Pierce). Cell lysates were further mixed with loading buffer containing 1% β-mercaptoethanol, 0.02% bromophenol blue, and 0.1 M DTT. […] For quantification, films were scanned and analyzed with Image Gauge (Version 3.12, Fuji Photo Film Corp.). All results are expressed as means ± SE for the indicated number of experiments (FIG. 13). […] As the bands of protein became visible, the membranes were washed several times and total amount of loaded protein was quantified using computerized densitometric analysis.

4-phenylbutyrate [4-PB]
level of Cx43 protein (Western blot): increased; also recorded: upregulated
